{"source": "patent US20080275123A1", "about": "“N-HALOGENATED AMINO ACID FORMULATIONS” (ALCON RESEARCH, LTD., priority 2007, published 2008)", "key": {"C. albicans": {"system": "C. albicans", "experiment": "Antimicrobial activity by standard microbiological analysis (viability after exposure to test agent)", "format": "cell-based", "conditions": "when 10 mM TBAH phase transfer agent is added", "procedure": "The antimicrobial activity of certain formulations described herein was evaluated by a standard microbiological analysis. For the evaluation, bacterial and fungal isolates were grown overnight on appropriate agar media as source of fresh cells. A suspension of these fresh cells was prepared in saline at approximately 1×10^8 cfu/mL. These suspensions were added directly to the test agents (various solutions of sodium 2,2-dimethyl-N,N-dichlorotaurine and control solutions). The initial concentration of cells in the test agent solutions was approximately 1×10^6 cfu/mL. The exposure of microorganisms to the test agent was conducted at room temperature for up to 60 minutes. At selected times, an aliquot was withdrawn and diluted into phosphate buffered saline at 4° C. Viability was determined following serial dilution and filtration onto Milliflex cassettes."}, "[1]": {"experiment": "Partitioning experiment, aqueous solution / dichloromethane", "format": "physicochemical", "conditions": "4 mM compound, pH 4; for Log P: dichloromethane/aqueous; for 2,2-dimethyl-N,N-dichlorotaurine in aqueous After Partitioning % 2,2-dimethyl-N,N-dichlorotaurine: equal volume dichloromethane overnight", "procedure": "Example 6 provides evidence of ion pairing taking place between a N-halogenated amino acid and a phase transfer agent, and the resulting changes in partitioning behavior. The partitioning experiment can be used to evaluate a compound's apparent lipophilicity and the potential improvement in antimicrobial activity when used on tissue.\nAqueous solutions were prepared containing 0.1% (4 mM) sodium 2,2-dimethyl-N,N-dichlorotaurine, tetrabutylammonium hydroxide (TBAH) at 0 mM, 1 mM, 4 mM, or 10 mM, 5 mM sodium acetate, sodium chloride to adjust osmolality to isotonic, and sodium hydroxide and/or hydrochloric acid to adjust pH to 4.\nThese aqueous solutions were assayed for 2,2-dimethyl-N,N-dichlorotaurine by reverse phase high pressure liquid chromatography. Each solution was then combined with an equal volume of dichloromethane, mixed on a rocker overnight, and the aqueous phase reassayed. The percent loss of 2,2-dimethyl-N,N-dichlorotaurine from the aqueous phase and theoretical percent of 2,2-dimethyl-N,N-dichlorotaurine partitioning to the dichloromethane were calculated and plotted versus the concentration of TBAH.\nThe theoretical percentage of 2,2-dimethyl-N,N-dichlorotaurine in dichloromethane phase is calculated as 100 percent minus the percent remaining in aqueous phase. FIG. 2 graphically illustrates the results of the above-described partitioning experiment. When 4 mM 2,2-dimethyl-N,N-dichlorotaurine in aqueous solution is combined with varying concentrations of TBAH, the quantity of 2,2-dimethyl-N,N-dichlorotaurine found in the aqueous solution decreases. Without added TBAH, almost all the 2,2-dimethyl-N,N-dichlorotaurine is found in the aqueous fraction. However, with 10 mM TBAH, most of the 2,2-dimethyl-N,N-dichlorotaurine has left the aqueous fraction and partitioned to the dichloromethane. This experiment is evidence of ion pair formation with TBAH phase transfer agent, which increases the apparent lipophilicity of the 2,2-dimethyl-N,N-dichlorotaurine."}}}
{"compound": "CC(C)(CS(=O)(=O)O)N(Cl)Cl", "note": "[2,2-dimethyl-N,N-dichlorotaurine]", "values": [{"measurement": "antimicrobial activity (FIG. 1)", "setting": "C. albicans", "result": "dramatically increased"}, {"measurement": "2,2-dimethyl-N,N-dichlorotaurine in aqueous After Partitioning % in Aqueous", "setting": "[1]; TBAH 0 mM", "result": 96.1, "unit": "%"}, {"measurement": "2,2-dimethyl-N,N-dichlorotaurine in aqueous Before Partitioning % 2,2-dimethyl-N,N-dichlorotaurine", "setting": "[1]; TBAH 0 mM", "result": 0.1007, "unit": "%"}, {"measurement": "Calculated 2,2-dimethyl-N,N-dichlorotaurine % in CH2Cl2 After Partitioning Theory % in Dichloromethane", "setting": "[1]; TBAH 0 mM", "result": 3.9, "unit": "%"}, {"measurement": "Log P", "setting": "[1]; TBAH 0 mM", "result": "−1.39"}, {"measurement": "2,2-dimethyl-N,N-dichlorotaurine in aqueous After Partitioning % 2,2-dimethyl-N,N-dichlorotaurine", "setting": "[1]; TBAH 0 mM", "result": 0.09675, "unit": "%"}, {"measurement": "2,2-dimethyl-N,N-dichlorotaurine in aqueous After Partitioning % in Aqueous", "setting": "[1]; TBAH 1 mM", "result": 76.1, "unit": "%"}, {"measurement": "2,2-dimethyl-N,N-dichlorotaurine in aqueous Before Partitioning % 2,2-dimethyl-N,N-dichlorotaurine", "setting": "[1]; TBAH 1 mM", "result": 0.1008, "unit": "%"}, {"measurement": "Calculated 2,2-dimethyl-N,N-dichlorotaurine % in CH2Cl2 After Partitioning Theory % in Dichloromethane", "setting": "[1]; TBAH 1 mM", "result": 23.9, "unit": "%"}, {"measurement": "Log P", "setting": "[1]; TBAH 1 mM", "result": "−0.50"}, {"measurement": "2,2-dimethyl-N,N-dichlorotaurine in aqueous After Partitioning % 2,2-dimethyl-N,N-dichlorotaurine", "setting": "[1]; TBAH 1 mM", "result": 0.07672, "unit": "%"}, {"measurement": "2,2-dimethyl-N,N-dichlorotaurine in aqueous After Partitioning % in Aqueous", "setting": "[1]; TBAH 4 mM", "result": 35.4, "unit": "%"}, {"measurement": "2,2-dimethyl-N,N-dichlorotaurine in aqueous Before Partitioning % 2,2-dimethyl-N,N-dichlorotaurine", "setting": "[1]; TBAH 4 mM", "result": 0.1008, "unit": "%"}, {"measurement": "Calculated 2,2-dimethyl-N,N-dichlorotaurine % in CH2Cl2 After Partitioning Theory % in Dichloromethane", "setting": "[1]; TBAH 4 mM", "result": 64.6, "unit": "%"}, {"measurement": "Log P", "setting": "[1]; TBAH 4 mM", "result": 0.26}, {"measurement": "2,2-dimethyl-N,N-dichlorotaurine in aqueous After Partitioning % 2,2-dimethyl-N,N-dichlorotaurine", "setting": "[1]; TBAH 4 mM", "result": 0.03573, "unit": "%"}, {"measurement": "2,2-dimethyl-N,N-dichlorotaurine in aqueous After Partitioning % in Aqueous", "setting": "[1]; TBAH 10 mM", "result": 11.9, "unit": "%"}, {"measurement": "2,2-dimethyl-N,N-dichlorotaurine in aqueous Before Partitioning % 2,2-dimethyl-N,N-dichlorotaurine", "setting": "[1]; TBAH 10 mM", "result": 0.1009, "unit": "%"}, {"measurement": "Calculated 2,2-dimethyl-N,N-dichlorotaurine % in CH2Cl2 After Partitioning Theory % in Dichloromethane", "setting": "[1]; TBAH 10 mM", "result": 88.1, "unit": "%"}, {"measurement": "Log P", "setting": "[1]; TBAH 10 mM", "result": 0.87}, {"measurement": "2,2-dimethyl-N,N-dichlorotaurine in aqueous After Partitioning % 2,2-dimethyl-N,N-dichlorotaurine", "setting": "[1]; TBAH 10 mM", "result": 0.01198, "unit": "%"}]}
